According to PMC11882969 (Nature Communications, 2025):
Values joined by “and” are separate entries in the source; they are usually repeats but may differ in a detail not shown here. Equal entries are not always repeated. Where two headings read alike, the source gives them in different places.

Tests used:
[1] = biological target: CB1 (rCB1) (Rattus norvegicus, UniProt P20272); experiment: Radioligand competition binding, [3H]-CP-55,940, rat brain membranes
[2] = biological target: hCB1 (Homo sapiens, UniProt P21554); experiment: bioSensAll ebBRET signaling profiling, hCB1; type: cell-based; parameters: host or cells: HEK293SL cells, transient PEI transfection; settings: for Gi1 hCB1 response: Gi1 biosensor; for Gi1 hCB1 / GoB hCB1: single replicate values, FigS6a; for Emax [95% CI]: normalized to CP-55,940; for EC50: read-out: EC50 [95% CI]
Sequence of hCB1 (P21554 whole entry): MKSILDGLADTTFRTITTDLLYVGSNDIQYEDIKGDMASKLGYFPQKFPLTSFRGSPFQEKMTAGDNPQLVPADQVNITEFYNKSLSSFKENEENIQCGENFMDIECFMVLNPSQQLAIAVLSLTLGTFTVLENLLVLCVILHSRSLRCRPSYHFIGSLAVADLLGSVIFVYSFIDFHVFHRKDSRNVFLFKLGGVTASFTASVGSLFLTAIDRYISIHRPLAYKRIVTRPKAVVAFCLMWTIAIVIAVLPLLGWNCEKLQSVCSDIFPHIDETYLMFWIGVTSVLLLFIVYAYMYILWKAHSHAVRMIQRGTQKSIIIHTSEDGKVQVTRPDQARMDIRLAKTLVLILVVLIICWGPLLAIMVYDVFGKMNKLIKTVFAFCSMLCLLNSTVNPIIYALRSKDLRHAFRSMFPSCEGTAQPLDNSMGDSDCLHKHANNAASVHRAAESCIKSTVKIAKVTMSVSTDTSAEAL

Sequence of CB1 (rCB1) (P20272 whole entry): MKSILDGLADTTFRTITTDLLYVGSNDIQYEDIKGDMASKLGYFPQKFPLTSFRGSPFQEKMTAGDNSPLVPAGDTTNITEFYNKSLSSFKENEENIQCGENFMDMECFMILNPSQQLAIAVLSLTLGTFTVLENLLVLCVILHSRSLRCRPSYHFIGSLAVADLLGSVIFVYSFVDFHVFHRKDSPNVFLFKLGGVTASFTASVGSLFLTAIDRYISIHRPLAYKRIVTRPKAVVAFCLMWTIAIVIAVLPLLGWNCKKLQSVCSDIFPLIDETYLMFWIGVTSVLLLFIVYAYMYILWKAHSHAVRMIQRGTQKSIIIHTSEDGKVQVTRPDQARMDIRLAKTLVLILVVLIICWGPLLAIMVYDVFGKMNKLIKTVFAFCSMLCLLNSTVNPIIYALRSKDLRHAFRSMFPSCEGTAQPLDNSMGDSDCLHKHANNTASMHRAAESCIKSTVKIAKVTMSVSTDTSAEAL

COC(=O)[C@@H]1[C@@H]2CCC[C@@H]2CN1C(=O)c1cc(C)n(-c2cccc(C(F)(F)F)c2)n1 [‘6439]
pKi [95% CI] ([1]; rCB1): 6.6 [6.4 – 6.8]
Ki ([1]; read-out: Ki [95% CI], rCB1, [3H]-CP-55,940): 251 nM
Gi1 hCB1 response ([2]; Log [Compound] (M) -4.22186): 151.018
Gi1 hCB1 response ([2]; Log [Compound] (M) -4.63927): 115.678
Gi1 hCB1 response ([2]; Log [Compound] (M) -5.05788): 127.496
Gi1 hCB1 response ([2]; Log [Compound] (M) -5.47381): 106.412
Gi1 hCB1 response ([2]; Log [Compound] (M) -5.89285): 85.038
Gi1 hCB1 response ([2]; Log [Compound] (M) -6.31878): 82.8446
Gi1 hCB1 response ([2]; Log [Compound] (M) -6.72585): 60.217
Gi1 hCB1 response ([2]; Log [Compound] (M) -7.14267): 58.225
Gi1 hCB1 response ([2]; Log [Compound] (M) -7.55284): 19.617
Gi1 hCB1 response ([2]; Log [Compound] (M) -8): 16.8865
Gi1 hCB1 response ([2]; Log [Compound] (M) -8.22186): 14.8945
Gi1 hCB1 response ([2]; Log [Compound] (M) -8.39794): 2.361
Gi1 hCB1 response ([2]; Log [Compound] (M) -8.68787): 6.703
Gi1 hCB1 response ([2]; Log [Compound] (M) -9.15521): 0.8614
Gi1 hCB1 response ([2]; Log [Compound] (M) -9.61989): -7.912
Gi1 hCB1 response ([2]; Log [Compound] (M) -10.0969): -33.897
Gi1 hCB1 response ([2]; Log [Compound] (M) -10.5529): -6.905
Gi1 hCB1 response ([2]; Log [Compound] (M) -11.0177): 0.7271
Gi1 hCB1 response ([2]; Log [Compound] (M) -11.4949): -12.7913
Gi1 hCB1 response ([2]; Log [Compound] (M) -11.9208): -11.6498
Gi1 hCB1 response ([2]; Log [Compound] (M) -12.3979): -8.158
Gi1 hCB1 response ([2]; Log [Compound] (M) -12.8861): -13.8656
Gi1 hCB1 response ([2]; Log [Compound] (M) -13, individual replicate values): 6.815 and -3.369
Gi1 hCB1 ([2]; Log [Compound] (M) -4.22186): 102.871
GoB hCB1 ([2]; Log [Compound] (M) -4.22186): 99.959
Gi1 hCB1 ([2]; Log [Compound] (M) -4.63927): 91.1085
GoB hCB1 ([2]; Log [Compound] (M) -4.63927): 101.488
Gi1 hCB1 ([2]; Log [Compound] (M) -5.05788): 91.2935
GoB hCB1 ([2]; Log [Compound] (M) -5.05788): 96.0026
Gi1 hCB1 ([2]; Log [Compound] (M) -5.47381): 93.4364
GoB hCB1 ([2]; Log [Compound] (M) -5.47381): 100.139
Gi1 hCB1 ([2]; Log [Compound] (M) -5.89285): 89.3202
GoB hCB1 ([2]; Log [Compound] (M) -5.89285): 94.2762
Gi1 hCB1 ([2]; Log [Compound] (M) -6.31878): 88.4414
GoB hCB1 ([2]; Log [Compound] (M) -6.31878): 89.4207
Gi1 hCB1 ([2]; Log [Compound] (M) -6.72585): 73.3178
GoB hCB1 ([2]; Log [Compound] (M) -6.72585): 75.088
Gi1 hCB1 ([2]; Log [Compound] (M) -7.14267): 49.9
GoB hCB1 ([2]; Log [Compound] (M) -7.14267): 54.2273
Gi1 hCB1 ([2]; Log [Compound] (M) -7.55284): 26.2355
GoB hCB1 ([2]; Log [Compound] (M) -7.55284): 30.9029
Gi1 hCB1 ([2]; Log [Compound] (M) -8): 8.645
GoB hCB1 ([2]; Log [Compound] (M) -8): 13.9266
Gi1 hCB1 ([2]; Log [Compound] (M) -8.22186): 5.331
GoB hCB1 ([2]; Log [Compound] (M) -8.22186): 0.7628
Gi1 hCB1 ([2]; Log [Compound] (M) -8.39794): 4.128
GoB hCB1 ([2]; Log [Compound] (M) -8.39794): 8.262
Gi1 hCB1 ([2]; Log [Compound] (M) -8.68787): 4.853
GoB hCB1 ([2]; Log [Compound] (M) -8.68787): -0.2442
Gi1 hCB1 ([2]; Log [Compound] (M) -9.15521): 1.029
GoB hCB1 ([2]; Log [Compound] (M) -9.15521): -1.989
Gi1 hCB1 ([2]; Log [Compound] (M) -9.61989): 0.2894
GoB hCB1 ([2]; Log [Compound] (M) -9.61989): -0.46
Gi1 hCB1 ([2]; Log [Compound] (M) -10.0969): -1.6068
GoB hCB1 ([2]; Log [Compound] (M) -10.0969): -4.219
Gi1 hCB1 ([2]; Log [Compound] (M) -10.5529): 0.5669
GoB hCB1 ([2]; Log [Compound] (M) -10.5529): -0.6758
Gi1 hCB1 ([2]; Log [Compound] (M) -11.0177): -0.651
GoB hCB1 ([2]; Log [Compound] (M) -11.0177): -1.557
Gi1 hCB1 ([2]; Log [Compound] (M) -11.4949): -0.6201
GoB hCB1 ([2]; Log [Compound] (M) -11.4949): 1.626
Gi1 hCB1 ([2]; Log [Compound] (M) -11.9208): -0.3581
GoB hCB1 ([2]; Log [Compound] (M) -11.9208): -0.04642
Gi1 hCB1 ([2]; Log [Compound] (M) -12.3979): 0.9369
GoB hCB1 ([2]; Log [Compound] (M) -12.3979): 0.02551
Gi1 hCB1 ([2]; Log [Compound] (M) -12.8861): 1.631
GoB hCB1 ([2]; Log [Compound] (M) -12.8861): 1.572
Gi1 hCB1 ([2]; Log [Compound] (M) -13): -0.9439 and 1.0911
GoB hCB1 ([2]; Log [Compound] (M) -13): -0.55 and -0.478
pEC50 [95% CI] ([2]; hCB1 Gi1): 7.2 [7.1 – 7.2]
Emax [95% CI] ([2]; hCB1 Gi1): 95 [93 – 96]
pEC50 [95% CI] ([2]; hCB1 GoB): 7.2 [7.2 – 7.3]
Emax [95% CI] ([2]; hCB1 GoB): 100 [99 – 101]
pEC50 [95% CI] ([2]; hCB1 Gz): 6.5 [5.9 – 7.0]
Emax [95% CI] ([2]; hCB1 Gz): 162 [125 –199]
EC50 ([2]; hCB1 Gi1): 65.5 nM
EC50 ([2]; hCB1 GoB): 60.9 nM
EC50 ([2]; hCB1 Gz): 339 nM
